Results reported in patent US20130065936A1, “MODULATION OF BIOACTIVE EPOXY-FATTY ACID LEVELS BY PHOSPHODIESTERASE INHIBITORS” (THE REGENTS OF THE UNIVERSITY OF CALIFORNIA, priority 2010, published 2013).

Columns and labels:
[1] = tested on: Sprague-Dawley rats; assay: Acute nociceptive responses in healthy rats, Hargreaves thermal withdrawal latency; type: in vivo, rat; settings: for antagonism of / interaction with rolipram-produced increase in thermal withdrawal latency: Hargreaves, celecoxib 20, fluconazole 40, micanozole 40, finasteride 10, picrotoxin 0.25 mg/kg
[2] = tested on: Sprague-Dawley rats; assay: Acute nociceptive responses in healthy rats, Randall-Selitto mechanical sensitivity assay; type: in vivo, rat; settings: picrotoxin 0.25 mg/kg s.c.
[3] = tested on: Sprague-Dawley rats; assay: Open field activity; type: in vivo, rat; settings: 1 h following administration
Method: For the measurement of open field activity animals were placed in an acrylic chamber (40×40×20 cm length×width×height) divided into 100 cm^2 (10×10 cm) sections. The number of crossings were recorded when both hind paws crossed into a neighboring cell.

[4] = tested on: endogenous oxylipin sEH substrates and products in rat plasma; assay: Oxylipin analysis in rat plasma after sEHI / PDE inhibitor administration (LC-ESI-MS/MS); type: in vivo; settings: rat plasma 45 min after s.c.; 1 mg/kg, pentoxyphilline 10 mg/kg;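 also: plasma from tail vein blood, oxylipins quantified by LC-ESI-MS/MS against deuterated internal standards following solid-phase extraction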
[5] = biological target: T1, sEH (Homo sapiens, UniProt P34913); assay: sEH inhibition as stated in the general description (earlier tests, '506 patent); type: biochemical
T1 sequence (P34913 1-555): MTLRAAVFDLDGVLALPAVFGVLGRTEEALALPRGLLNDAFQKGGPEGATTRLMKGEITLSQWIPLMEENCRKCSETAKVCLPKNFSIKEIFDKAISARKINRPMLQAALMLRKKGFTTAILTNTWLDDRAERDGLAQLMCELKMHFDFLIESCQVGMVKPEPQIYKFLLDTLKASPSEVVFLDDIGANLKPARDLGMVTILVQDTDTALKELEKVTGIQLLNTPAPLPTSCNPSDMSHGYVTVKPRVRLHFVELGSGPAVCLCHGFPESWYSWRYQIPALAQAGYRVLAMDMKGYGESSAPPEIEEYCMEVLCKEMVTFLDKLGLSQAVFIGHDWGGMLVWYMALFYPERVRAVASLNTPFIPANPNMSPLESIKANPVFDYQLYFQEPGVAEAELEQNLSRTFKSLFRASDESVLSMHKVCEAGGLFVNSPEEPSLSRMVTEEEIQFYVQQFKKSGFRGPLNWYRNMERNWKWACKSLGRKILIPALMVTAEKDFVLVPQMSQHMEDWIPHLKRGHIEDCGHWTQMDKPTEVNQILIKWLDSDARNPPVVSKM

Clc1ccc(COC(Cn2ccnc2)c2ccc(Cl)cc2Cl)c(Cl)c1 (stereo not drawn) [micanozole]
antagonism of / interaction with rolipram-produced increase in thermal withdrawal latency [1]: lack of antagonism

picrotoxin
antagonism of / interaction with rolipram-produced increase in thermal withdrawal latency [1]: partially blocked rolipram
thermal withdrawal latency / pain related behavior, change from predrug baseline ([1]; healthy rats, s.c., about 1 h after administration): ineffective on its own in changing pain related behavior
antagonism of the increase in thermal withdrawal latency produced by rolipram/AUDA ([1]; picrotoxin 0.25 mg/kg s.c.): effectively antagonized
antagonism of the increase in mechanical withdrawal threshold produced by rolipram/AUDA [2]: effectively antagonized

CC(=O)N1CCC(NC(=O)Nc2ccc(OC(F)(F)F)cc2)CC1 [TPAU]
voluntary movement in an open-field chamber (motor depressant effect) [3]: indistinguishable from baseline activity

OC(Cn1cncn1)(Cn1cncn1)c1ccc(F)cc1F [fluconazole]
antagonism of / interaction with rolipram-produced increase in thermal withdrawal latency [1]: Noncompetitive antagonism

CN(C(=O)CCCOc1ccc2[nH]c(=O)ccc2c1)C1CCCCC1 [Cilostamide]
8(9)-EpETE [4]: 0.74 nM
8(9)-EpETrE [4]: 3.13 nM
8,9-DiHETE [4]: 0.27 nM
8,9-DiHETrE [4]: 0.47 nM
9(10)-EpOME [4]: 32.41 nM
9,10-DiHOME [4]: 29.53 nM
10(11)-EpDPE [4]: 4.06 nM
10,11-DiHDPE [4]: 0.66 nM
11(12)-EpETE [4]: 0.45 nM
11(12)-EpETrE [4]: 4.44 nM
11,12-DiHETE [4]: 0.43 nM
11,12-DiHETrE [4]: 1.60 nM
12(13)-EpOME [4]: 51.82 nM
12,13-DiHOME [4]: 37.98 nM
13(14)-EpDPE [4]: 2.23 nM
13,14-DiHDPE [4]: 0.73 nM
14(15)-EpETE [4]: 0.49 nM
14(15)-EpETrE [4]: 7.71 nM
14,15-DiHETE [4]: 1.24 nM
14,15-DiHETrE [4]: 1.82 nM
16(17)-EpDPE [4]: 2.94 nM
16,17-DiHDPE [4]: 2.28 nM
17(18)-EpETE [4]: 2.66 nM
17,18-DiHETE [4]: 3.08 nM
19(20)-EpDPE [4]: 8.95 nM
19,20-DiHDPE [4]: 5.50 nM
Ratio 8(9)-EpETE / 8,9-DiHETE [4]: 2.81
Ratio 8(9)-EpETrE / 8,9-DiHETrE [4]: 6.69
Ratio 9(10)-EpOME / 9,10-DiHOME [4]: 1.10
Ratio 10(11)-EpDPE / 10,11-DiHDPE [4]: 6.13
Ratio 11(12)-EpETE / 11,12-DiHETE [4]: 1.04
Ratio 11(12)-EpETrE / 11,12-DiHETrE [4]: 2.78
Ratio 12(13)-EpOME / 12,13-DiHOME [4]: 1.36
Ratio 13(14)-EpDPE / 13,14-DiHDPE [4]: 3.05
Ratio 14(15)-EpETE / 14,15-DiHETE [4]: 0.39
Ratio 14(15)-EpETrE / 14,15-DiHETrE [4]: 4.24
Ratio 16(17)-EpDPE / 16,17-DiHDPE [4]: 1.29
Ratio 17(18)-EpETE / 17,18-DiHETE [4]: 0.86
Ratio 19(20)-EpDPE / 19,20-DiHDPE [4]: 1.63
total Di-hydroxyeicosanoid [4]: 322.82 nM
total Epoxyeicosanoid [4]: 1014.12 nM
total Ratio epoxy/dihydroxy eicosanoids [4]: 3.14

CCc1ccc2c(-c3cccc(Cl)c3)nc(=O)n(CC)c2n1 [YM976]
8(9)-EpETE [4]: 2.74 nM
8(9)-EpETrE [4]: 13.59 nM
8,9-DiHETE [4]: 0.29 nM
8,9-DiHETrE [4]: 0.58 nM
9(10)-EpOME [4]: 147.05 nM
9,10-DiHOME [4]: 37.07 nM
10(11)-EpDPE [4]: 20.16 nM
10,11-DiHDPE [4]: 0.82 nM
11(12)-EpETE [4]: 2.23 nM
11(12)-EpETrE [4]: 22.80 nM
11,12-DiHETE [4]: 0.48 nM
11,12-DiHETrE [4]: 1.55 nM
12(13)-EpOME [4]: 159.31 nM
12,13-DiHOME [4]: 57.32 nM
13(14)-EpDPE [4]: 10.28 nM
13,14-DiHDPE [4]: 0.81 nM
14(15)-EpETE [4]: 1.99 nM
14(15)-EpETrE [4]: 26.50 nM
14,15-DiHETE [4]: 1.19 nM
14,15-DiHETrE [4]: 1.84 nM
16(17)-EpDPE [4]: 10.41 nM
16,17-DiHDPE [4]: 2.22 nM
17(18)-EpETE [4]: 4.49 nM
17,18-DiHETE [4]: 2.95 nM
19(20)-EpDPE [4]: 18.10 nM
19,20-DiHDPE [4]: 6.24 nM
Ratio 8(9)-EpETE / 8,9-DiHETE [4]: 9.62
Ratio 8(9)-EpETrE / 8,9-DiHETrE [4]: 23.44
Ratio 9(10)-EpOME / 9,10-DiHOME [4]: 3.97
Ratio 10(11)-EpDPE / 10,11-DiHDPE [4]: 24.59
Ratio 11(12)-EpETE / 11,12-DiHETE [4]: 4.69
Ratio 11(12)-EpETrE / 11,12-DiHETrE [4]: 14.76
Ratio 12(13)-EpOME / 12,13-DiHOME [4]: 2.78
Ratio 13(14)-EpDPE / 13,14-DiHDPE [4]: 12.66
Ratio 14(15)-EpETE / 14,15-DiHETE [4]: 1.67
Ratio 14(15)-EpETrE / 14,15-DiHETrE [4]: 14.43
Ratio 16(17)-EpDPE / 16,17-DiHDPE [4]: 4.68
Ratio 17(18)-EpETE / 17,18-DiHETE [4]: 1.52
Ratio 19(20)-EpDPE / 19,20-DiHDPE [4]: 2.90
total Di-hydroxyeicosanoid [4]: 423.59 nM
total Epoxyeicosanoid [4]: 535.16 nM
total Ratio epoxy/dihydroxy eicosanoids [4]: 1.26

CC(C)(C)NC(=O)[C@H]1CC[C@H]2[C@@H]3CC[C@H]4NC(=O)C=C[C@]4(C)[C@H]3CC[C@]12C [finasteride]
antagonism of / interaction with rolipram-produced increase in thermal withdrawal latency [1]: competitive antagonism

CC(=O)CCCCn1c(=O)c2c(ncn2C)n(C)c1=O [Pentoxyphilline]
8(9)-EpETE [4]: 1.27 nM
8(9)-EpETrE [4]: 6.41 nM
8,9-DiHETE [4]: 0.30 nM
8,9-DiHETrE [4]: 0.54 nM
9(10)-EpOME [4]: 59.92 nM
9,10-DiHOME [4]: 34.24 nM
10(11)-EpDPE [4]: 7.86 nM
10,11-DiHDPE [4]: 0.71 nM
11(12)-EpETE [4]: 0.80 nM
11(12)-EpETrE [4]: 10.60 nM
11,12-DiHETE [4]: 0.45 nM
11,12-DiHETrE [4]: 1.77 nM
12(13)-EpOME [4]: 87.05 nM
12,13-DiHOME [4]: 50.89 nM
13(14)-EpDPE [4]: 4.20 nM
13,14-DiHDPE [4]: 0.79 nM
14(15)-EpETE [4]: 0.69 nM
14(15)-EpETrE [4]: 14.76 nM
14,15-DiHETE [4]: 1.06 nM
14,15-DiHETrE [4]: 1.73 nM
16(17)-EpDPE [4]: 5.07 nM
16,17-DiHDPE [4]: 2.20 nM
17(18)-EpETE [4]: 3.08 nM
17,18-DiHETE [4]: 2.81 nM
19(20)-EpDPE [4]: 12.04 nM
19,20-DiHDPE [4]: 6.00 nM
Ratio 8(9)-EpETE / 8,9-DiHETE [4]: 4.15
Ratio 8(9)-EpETrE / 8,9-DiHETrE [4]: 11.91
Ratio 9(10)-EpOME / 9,10-DiHOME [4]: 1.75
Ratio 10(11)-EpDPE / 10,11-DiHDPE [4]: 11.13
Ratio 11(12)-EpETE / 11,12-DiHETE [4]: 1.79
Ratio 11(12)-EpETrE / 11,12-DiHETrE [4]: 6.00
Ratio 12(13)-EpOME / 12,13-DiHOME [4]: 1.71
Ratio 13(14)-EpDPE / 13,14-DiHDPE [4]: 5.30
Ratio 14(15)-EpETE / 14,15-DiHETE [4]: 0.66
Ratio 14(15)-EpETrE / 14,15-DiHETrE [4]: 8.52
Ratio 16(17)-EpDPE / 16,17-DiHDPE [4]: 2.30
Ratio 17(18)-EpETE / 17,18-DiHETE [4]: 1.10
Ratio 19(20)-EpDPE / 19,20-DiHDPE [4]: 2.01
total Di-hydroxyeicosanoid [4]: 423.15 nM
total Epoxyeicosanoid [4]: 497.36 nM
total Ratio epoxy/dihydroxy eicosanoids [4]: 1.18

CCCCCCCCCCCCNC(=O)NC12CC3CC(CC(C3)C1)C2 [ADU, N-Adamantyl-N′-dodecyl urea]
activity as inhibitor of sEH [5]: particularly high activity on sEH
